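1) Cells in 96-well plates. 2) Compound, 48 h, 5 concentrations. 3) Linear interpolation between surrounding doses. 4) Unreached endpoint = highest concentration. At the GI50, growth is halved. TGI: concentration producing complete growth inhibition.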
How the values were obtained:
Assay in all cases: DTP human tumour cell line panel, 48 h
COLO 205 colon = test system: COLO 205 colon
IGROV1 ovarian = test system: IGROV1 ovarian
NCI-H23 lung = test system: NCI-H23 lung
NCI-H460 lung = test system: NCI-H460 lung
OVCAR-4 ovarian = test system: OVCAR-4 ovarian
OVCAR-5 ovarian = test system: OVCAR-5 ovarian
SF-268 CNS = test system: SF-268 CNS
SF-295 CNS = test system: SF-295 CNS
SR leukemia = test system: SR leukemia
CAKI-1 renal = test system: CAKI-1 renal

| SMILES | TGI (COLO 205 colon) [µM] | TGI (IGROV1 ovarian) [µM] | TGI (NCI-H23 lung) [µM] | TGI (NCI-H460 lung) [µM] | TGI (OVCAR-4 ovarian) [µM] | TGI (OVCAR-5 ovarian) [µM] | TGI (SF-268 CNS) [µM] | TGI (SF-295 CNS) [µM] | TGI (SR leukemia) [µM] | TGI (CAKI-1 renal) [µM] | GI50 (CAKI-1 renal) [µM] | GI50 (COLO 205 colon) [µM] | GI50 (IGROV1 ovarian) [µM] | GI50 (NCI-H23 lung) [µM] | GI50 (OVCAR-4 ovarian) [µM] | GI50 (OVCAR-5 ovarian) [µM] | GI50 (SF-268 CNS) [µM] | GI50 (SF-295 CNS) [µM] | GI50 (SR leukemia) [µM] |
| --- | --- | --- | --- | --- | --- | --- | --- | --- | --- | --- | --- | --- | --- | --- | --- | --- | --- | --- | --- |
| Cc1cc(N(CCCCl)CCCCl)ccc1C=Nc1cccc(Cl)c1 | 23.6 | 35 | 27.7 | 22.6 | 26.4 | 12.6 | 48.4 | 43.5 | 24 | – | – | – | – | – | – | – | – | – | – |
| C[n+]1ccc(-c2cc[n+](C)cc2)cc1 | > 38.3 | > 38.1 | > 29.3 | > 33.5 | 3.21 | 37.9 | > 100 | > 37.6 | > 31.6 | > 100 | – | – | – | – | – | – | – | – | – |
| c1ccc2sc(SCN(C3CCCCC3)C3CCCCC3)nc2c1 | – | > 100 | > 100 | > 100 | > 100 | > 100 | > 100 | > 100 | > 100 | > 100 | – | – | – | – | – | – | – | – | – |
| Nc1ccc(Nc2c3ccccc3nc3ccccc23)cc1 | > 10 | > 10 | > 10 | 8.07 | > 10 | > 10 | > 10 | > 10 | > 10 | 6.94 | – | – | – | – | – | – | – | – | – |
| Nc1nnc(N)n1NC(=O)C(=O)Nc1ccc([N+](=O)[O-])cc1 | > 100 | > 100 | > 100 | > 100 | > 100 | > 100 | > 100 | > 100 | > 100 | > 100 | – | – | – | – | – | – | – | – | – |
| COc1cc2c(cc1Oc1ccc(OC)c3c1CC1c4c(cc(OC)c(OC)c4-3)CCN1C)CC1c3c(cc(OC)c(OC)c3-2)CCN1C (configuration not stated) | 2.95 | 18.7 | 27.4 | 3.88 | 10.4 | 12.8 | 14.8 | 6.11 | – | 8.06 | – | – | – | – | – | – | – | – | – |
| Fc1ccc(-c2nnc3sc(COc4ccccc4Cl)nn23)cc1Cl | > 100 | 62.8 | > 100 | – | 78.4 | > 100 | > 100 | > 100 | 76.4 | > 100 | 76.6 | 43.7 | 17.7 | 33.4 | 28.2 | 81 | 41.9 | 61.8 | 23.3 |
| O=C1c2ccccc2C(=O)c2c1ccc(C(=O)O)c2-c1ccc2ccccc2c1 | 30.1 | 68.3 | 46.5 | > 100 | > 100 | 59.3 | 98.1 | 81 | 51.6 | > 100 | – | – | – | – | – | – | – | – | – |
| CCCCCCCCCCCCCCCCOCC(COP(=O)([O-])OCC[n+]1ccc(N(C)C)cc1)OCC (configuration not stated) | 26.5 | 33.8 | 35.9 | 25.4 | 29.3 | – | 25.7 | 30.2 | 23.9 | – | – | – | – | – | – | – | – | – | – |
| COc1ccc(CC2c3cc(OC)c(OC)c(OC)c3CC[N+]2(C)C)cc1Oc1ccc(CC2c3cc4c(c(OC)c3CCN2C)OCO4)cc1 (configuration not stated) | > 100 | > 100 | > 100 | > 100 | > 100 | > 100 | > 100 | > 100 | > 100 | > 100 | – | – | – | – | – | – | – | – | – |
| Cc1cc(=O)oc2c1cc(OCC(=O)OCCN1CCCCC1)c1occ(C)c12 | – | – | > 100 | > 100 | > 100 | > 100 | – | > 100 | – | > 100 | – | – | – | – | – | – | – | – | – |
| COc1cc(O)c2c(c1)C(=O)c1cc(C)cc(O)c1C2=O | > 100 | > 100 | > 100 | > 100 | > 100 | > 100 | > 100 | > 100 | > 100 | > 100 | – | – | – | – | – | – | – | – | – |
| COc1cc(C)c2c(=O)c3c(oc2c1)C(=O)c1c(O)c(OC)cc(O)c1C3=O | > 43.4 | 4.29 | 3.38 | 3.97 | 4.28 | 5.36 | > 50 | 3.23 | – | 1.85 | – | – | – | – | – | – | – | – | – |
| O=c1cc(O)c2ccccc2o1 | > 100 | > 100 | > 100 | > 100 | > 100 | > 100 | > 100 | > 100 | > 100 | > 100 | – | – | – | – | – | – | – | – | – |
| CC(C)=CCC[C@](C)(O[C@@H]1O[C@H](CO)[C@@H](O)[C@H](O)[C@H]1O)[C@H]1CC[C@]2(C)[C@@H]1[C@H](O)C[C@@H]1[C@@]3(C)CC[C@H](O)C(C)(C)[C@@H]3[C@@H](O[C@@H]3O[C@H](CO)[C@@H](O)[C@H](O)[C@H]3O)C[C@]12C | > 100 | > 100 | > 100 | > 100 | > 100 | > 100 | > 100 | > 100 | > 100 | > 100 | – | – | – | – | – | – | – | – | – |
| Cn1c(Sc2ccc(-c3cccnc3)n2C)ccc1-c1cccnc1 | 38 | 31.9 | 34.8 | 31.1 | 36.6 | 50.9 | 23.7 | 38.6 | 9.79 | 36.5 | – | – | – | – | – | – | – | – | – |
| COc1c(Cl)cc(S(=O)O)cc1Cl | – | – | > 100 | > 100 | > 100 | > 100 | > 100 | – | – | – | – | – | – | – | – | – | – | – | – |
| NC(=O)Nc1cc(O)ccc1N=Nc1ccc(S(=O)(=O)Nc2ccccn2)cc1 | > 100 | > 100 | > 100 | > 100 | > 100 | > 100 | > 100 | > 100 | – | > 100 | – | – | – | – | – | – | – | – | – |
| CCOC(=O)NC | > 100 | > 100 | > 100 | > 100 | > 100 | > 100 | > 100 | > 100 | > 100 | > 100 | – | – | – | – | – | – | – | – | – |

From PubChem BioAssay (NCI)
